Reference: US20240245783A1, “METALLO-BETA-LACTAMASE INHIBITOR” (priority 2021, published 2024)

Assays:
[1] = tested on: multidrug-resistant Pseudomonas aeruginosa; experiment: Growth suppression of multidrug-resistant Pseudomonas aeruginosa clinical isolates (Test Example 7); assay type: cell-based; settings: MEPM 2 μg/ml alone, compound 8 20 μM (15.5 μg/ml) alone, Combination = both, 3 wells
Method: The effect of NODA-GA-conjugated doripenem (compound 8) on the susceptibility of a Pseudomonas aeruginosa clinical isolate to a carbapenem antibacterial agent was evaluated by the following method. The Pseudomonas aeruginosa clinical isolate was cultured overnight with shaking in LB medium. The bacterial solution was diluted to 1/1000 with LB medium, used as a test bacterial solution, and then seeded in a 96-well plate. Meropenem (Wako Pure Chemical Industries, Ltd.) was added to this bacterial solution in such a manner that the concentration was 2 μg/ml. The effect of NODA-GA-doripenem alone was also examined. The bacteria were cultured in an incubator at 37° C. for one day, and the growth at that time was measured by turbidity (655 nm).
MEPM in Table 1 is meropenem (2 μg/ml) administered alone; NODA-GA-doripenem is compound 8 (20 μM; 15.5 μg/ml) administered alone; Combination means a combined use of meropenem (2 μg/ml) and compound 8 (20 μM; 15.5 μg/ml).

[2] = target: T1, recombinant metallo-β-lactamase (recombinant IMP-1) (Serratia marcescens, UniProt P52699); experiment: Inhibition of meropenem degradation by recombinant IMP-1 (Test Example 1); assay type: biochemical; settings: 100 μM meropenem, no inhibitor; 1 hour at 37° C.
T1 construct: made in house; host or cells: E. coli BL21(DE3), vector pET29a
Method: Based on the description of NON PATENT LITERATURE 5, a recombinant metallo-β-lactamase (recombinant IMP-1) was prepared. “NG_049172” of Database: RefSeq as the IMP-1 gene was incorporated into vector pET29a (Novagen), and then expressed in E. coli BL21(DE3) (Invitrogen).
Recombinant IMP-1 was dissolved in a 50 mM sodium phosphate buffer (pH 7.6) at a concentration of 0.25 μg/ml. Furthermore, zinc chloride was added to the solution in such a manner that the concentration was 0.1 μM. The resultant in this state was subjected to preincubation at 37° C. for 10 minutes. […] After 1 hour of incubation at 37° C. residual meropenem was quantified by tandem mass spectrometry. Meropenem was quantified by a multiple reaction monitoring method. […]
Reverse phase column: YMC-Triat C18 Plus column (2.1×50 mm); column temperature: 45° C.; mobile phase (2 liquids): mobile phase A (0.1% formic acid aqueous solution), mobile phase B (acetonitrile); gradient: increase from 1% B to 80% B for 10 minutes, keep it at 80% B for 0.5 minutes, and then return it to 1% B over 1 minute. […] Detection: multiple reaction monitoring, parent ion at 384.2, child ion at 68.1; measured in a positive ion mode.
FIG. 4 depicts a graph showing the results of quantifying the peak area of meropenem detected in FIG. 3. The peak of meropenem alone is expressed as 100%.

[3] = tested on: IMP-1-expressing Klebsiella pneumoniae; experiment: Survival of Leukopenia mice infected with IMP-1-expressing Klebsiella pneumoniae (Test Example 6); assay type: in vivo; settings: meropenem 10 mg/kg alone subcutaneously; 48 hours; Leukopenia ddY mice
Method: DTPA-conjugated cefalexin (compound 1)'s effect of enhancing the drug susceptibility of pathogenic bacteria was examined by an in vivo experiment using bacteria-infected mice. To prepare a compromised Leukopenia mouse model, 0.1 mL of cyclophosphamide monohydrate (Sigma-Aldrich) prepared with PBS was administered intraperitoneally to 4-week-old male ddY mice (Japan SLC) at 250 mg/kg at 4 days before infection. IMP-1-expressing Klebsiella pneumoniae used herein was a clinical isolate provided by Kumamoto University Hospital. The bacteria were cultured overnight with shaking in LB medium at 37° C., then diluted 50-fold with LB medium, and further cultured with shaking, so that the turbidity (600 nm) was 1.5 or higher. The bacteria were centrifuged to remove the medium, washed twice with PBS, and then diluted with PBS to 5×10^5 CFU/mL. In the mouse infection experiment, each Leukopenia mouse was infected with 0.1 mL (5×10^4 CFU) of IMP-1-expressing Klebsiella pneumoniae by intraperitoneal injection. Thirty minutes after infection, 0.1 mL of a mixed solution containing meropenem (Wako Pure Chemical Industries, Ltd.) and compound 1 (DTPA-CEF) was subcutaneously administered to each mouse of a treatment mouse group at 10 mg/kg and 50 mg/kg, respectively. […] Forty-eight hours after infection, mice were assessed for viability. […]

T1 sequence (P52699 19-246 limits assumed): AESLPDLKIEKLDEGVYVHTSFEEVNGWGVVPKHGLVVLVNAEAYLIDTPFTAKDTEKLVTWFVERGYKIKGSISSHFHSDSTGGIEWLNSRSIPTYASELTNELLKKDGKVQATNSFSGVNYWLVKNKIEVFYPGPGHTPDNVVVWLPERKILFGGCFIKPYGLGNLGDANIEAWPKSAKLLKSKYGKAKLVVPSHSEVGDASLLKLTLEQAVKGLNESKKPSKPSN

SMILES: C[C@@H](O)[C@H]1C(=O)N2C(C(=O)O)=C(S[C@@H]3CN[C@H](C(=O)N(C)C)C3)[C@H](C)[C@H]12 [meropenem, reference compound]
- suppression of bacterial growth ([1]; strain 808#1): X (x indicates that the number of wells in which suppression of bacterial growth was confirmed was 1 or less)
- suppression of bacterial growth ([1]; strain 808#2): X (x indicates that the number of wells in which suppression of bacterial growth was confirmed was 1 or less)
- suppression of bacterial growth ([1]; strain MR1): X (x indicates that the number of wells in which suppression of bacterial growth was confirmed was 1 or less)
- suppression of bacterial growth ([1]; strain MR2): X (x indicates that the number of wells in which suppression of bacterial growth was confirmed was 1 or less)
- suppression of bacterial growth ([1]; strain MR3): X (x indicates that the number of wells in which suppression of bacterial growth was confirmed was 1 or less)
- suppression of bacterial growth ([1]; strain MR4): X (x indicates that the number of wells in which suppression of bacterial growth was confirmed was 1 or less)
- suppression of bacterial growth ([1]; strain MR5): X (x indicates that the number of wells in which suppression of bacterial growth was confirmed was 1 or less)
- suppression of bacterial growth ([1]; strain MR6): X (x indicates that the number of wells in which suppression of bacterial growth was confirmed was 1 or less)
- suppression of bacterial growth ([1]; strain MR7): X (x indicates that the number of wells in which suppression of bacterial growth was confirmed was 1 or less)
- suppression of bacterial growth ([1]; strain MR8): X (x indicates that the number of wells in which suppression of bacterial growth was confirmed was 1 or less)
- suppression of bacterial growth ([1]; strain MR9): X (x indicates that the number of wells in which suppression of bacterial growth was confirmed was 1 or less)
- suppression of bacterial growth ([1]; strain MR10): X (x indicates that the number of wells in which suppression of bacterial growth was confirmed was 1 or less)
- suppression of bacterial growth ([1]; strain MR11): X (x indicates that the number of wells in which suppression of bacterial growth was confirmed was 1 or less)
- suppression of bacterial growth ([1]; strain MR12): X (x indicates that the number of wells in which suppression of bacterial growth was confirmed was 1 or less)
- suppression of bacterial growth ([1]; strain MR13): X (x indicates that the number of wells in which suppression of bacterial growth was confirmed was 1 or less)
- suppression of bacterial growth ([1]; strain MR14): X (x indicates that the number of wells in which suppression of bacterial growth was confirmed was 1 or less)
- suppression of bacterial growth ([1]; strain MR15): X (x indicates that the number of wells in which suppression of bacterial growth was confirmed was 1 or less)
- suppression of bacterial growth ([1]; strain MR16): X (x indicates that the number of wells in which suppression of bacterial growth was confirmed was 1 or less)
- suppression of bacterial growth ([1]; strain NM1): X (x indicates that the number of wells in which suppression of bacterial growth was confirmed was 1 or less)
- suppression of bacterial growth ([1]; strain NM2): X (x indicates that the number of wells in which suppression of bacterial growth was confirmed was 1 or less)
- suppression of bacterial growth ([1]; strain NM3): X (x indicates that the number of wells in which suppression of bacterial growth was confirmed was 1 or less)
- suppression of bacterial growth ([1]; strain NM4): X (x indicates that the number of wells in which suppression of bacterial growth was confirmed was 1 or less)
- suppression of bacterial growth ([1]; strain NM5): X (x indicates that the number of wells in which suppression of bacterial growth was confirmed was 1 or less)
- degradation of meropenem on incubation with IMP-1 [2]: completely degraded
- survival [3]: All mice of the meropenem administration group died
